Data from ChEMBL document CHEMBL3797123, “Amino(oxo)acetate moiety: A new functional group to improve the cytotoxicity of betulin derived carbamates” (Bioorg Med Chem Lett, 2016).

Key:
Assay type in all cases: functional, cell-based
A549 = assay: Cytotoxicity against human A549 cells after 96 hrs by SRB assay; conditions: A549, 96 h
A2780 = assay: Cytotoxicity against human A2780 cells after 96 hrs by SRB assay; conditions: A2780, 96 h
MCF7 = assay: Cytotoxicity against human MCF7 cells after 96 hrs by SRB assay; conditions: MCF7, 96 h
[1] = Cytotoxicity against human 518A2 cells after 96 hrs by SRB assay; conditions: 518A2, 96 h
HeLa = assay: Cytotoxicity against human HeLa cells after 96 hrs by SRB assay
HT-29 = assay: Cytotoxicity against human HT-29 cells after 96 hrs by SRB assay; conditions: HT-29, 96 h

Molecule C=C(C)[C@@H]1CC[C@]2(CO)CC[C@]3(C)[C@H](CC[C@@H]4[C@@]5(C)CC[C@H](OC(C)=O)C(C)(C)[C@@H]5CC[C@]43C)[C@@H]12 has an EC50 (A549) greater than 30 µM, an EC50 (A2780) of 28.5 µM and an EC50 (MCF7) of 20.2 µM. It also gave an EC50 [1] greater than 30 µM, an EC50 (HeLa) greater than 30 µM and an EC50 (HT-29) greater than 30 µM.
C=C(C)[C@@H]1CC[C@]2(COC(=O)NCCCCCC)CC[C@]3(C)[C@H](CC[C@@H]4[C@@]5(C)CC[C@H](O)C(C)(C)[C@@H]5CC[C@]43C)[C@@H]12 gave an EC50 (A2780) of 7.6 µM and an EC50 [1] of 5.6 µM.
Molecule C=C(C)[C@@H]1CC[C@]2(COC(=O)NCC)CC[C@]3(C)[C@H](CC[C@@H]4[C@@]5(C)CC[C@H](OC(=O)C(N)=O)C(C)(C)[C@@H]5CC[C@]43C)[C@@H]12 has an EC50 (A549) of 13.7 µM, an EC50 (A2780) of 10 µM and an EC50 (MCF7) of 11.2 µM. The EC50 [1] was 11.4 µM, the EC50 (HeLa) was 14.1 µM and the EC50 (HT-29) was 15.3 µM.
For C=C(C)[C@@H]1CC[C@]2(COC(=O)NCCCC)CC[C@]3(C)[C@H](CC[C@@H]4[C@@]5(C)CC[C@H](OC(=O)C(N)=O)C(C)(C)[C@@H]5CC[C@]43C)[C@@H]12, the EC50 (A549) was 9.1 µM, the EC50 (A2780) was 6.4 µM and the EC50 (MCF7) was 10 µM. For the same molecule, the EC50 [1] was 7.9 µM, the EC50 (HeLa) was 11.2 µM and the EC50 (HT-29) was 10.1 µM.
Work on C=C(C)[C@@H]1CC[C@]2(COC(=O)NCCCCCC)CC[C@]3(C)[C@H](CC[C@@H]4[C@@]5(C)CC[C@H](OC(=O)C(N)=O)C(C)(C)[C@@H]5CC[C@]43C)[C@@H]12 yielded an EC50 (A549) of 7.4 µM, an EC50 (A2780) of 2 µM and an EC50 (MCF7) of 5.6 µM. The EC50 [1] was 6.5 µM, the EC50 (HeLa) was 10.1 µM and the EC50 (HT-29) was 7.3 µM.
Molecule C=C(C)[C@@H]1CC[C@]2(COC(=O)NCCC)CC[C@]3(C)[C@H](CC[C@@H]4[C@@]5(C)CC[C@H](OC(=O)C(N)=O)C(C)(C)[C@@H]5CC[C@]43C)[C@@H]12 has an EC50 (A549) of 10.5 µM, an EC50 (A2780) of 7 µM and an EC50 (MCF7) of 12.5 µM. The EC50 [1] was 9.9 µM, the EC50 (HeLa) was 12.8 µM and the EC50 (HT-29) was 12.8 µM.
In the case of C=C(C)[C@@H]1CC[C@]2(COC(=O)Nc3ccccc3)CC[C@]3(C)[C@H](CC[C@@H]4[C@@]5(C)CC[C@H](OC(=O)C(N)=O)C(C)(C)[C@@H]5CC[C@]43C)[C@@H]12, the EC50 (A549) is reported as 20.4 µM, the EC50 (A2780) is reported as 17.3 µM and the EC50 (MCF7) is reported as 17.6 µM. For the same molecule, the EC50 [1] was 15.3 µM, the EC50 (HeLa) was 10.5 µM and the EC50 (HT-29) was 21.4 µM.
Work on C=C(C)[C@@H]1CC[C@]2(COC(C)=O)CC[C@]3(C)[C@H](CC[C@@H]4[C@@]5(C)CC[C@H](OC(C)=O)C(C)(C)[C@@H]5CC[C@]43C)[C@@H]12 [BETULIN DIACETATE] yielded an EC50 (A549) of 21.5 µM, an EC50 (A2780) of 20.3 µM and an EC50 (HeLa) greater than 30 µM. It also gave an EC50 (HT-29) of 25.7 µM.
C=C(C)[C@@H]1CC[C@]2(C(=O)O)CC[C@]3(C)[C@H](CC[C@@H]4[C@@]5(C)CC[C@H](O)C(C)(C)[C@@H]5CC[C@]43C)[C@@H]12 [BETULINIC ACID] gave an EC50 (HeLa) of 8.8 µM.
With C=C(C)[C@@H]1CC[C@]2(CO)CC[C@]3(C)[C@H](CC[C@@H]4[C@@]5(C)CC[C@H](O)C(C)(C)[C@@H]5CC[C@]43C)[C@@H]12 [BETULIN] the EC50 (HeLa) was greater than 30 µM and the EC50 (HT-29) was greater than 30 µM.
